Data published in patent publication US9283226B2, “Pyrazole derivatives as protein kinase modulators” (Astex Therapeutics Ltd, priority 2003, dated 2016).

Molecular target: T1, PKB-PIF fusion protein (Homo sapiens, UniProt P31751)
T1 construct: made in house
Assay: Measurement of PKB kinase inhibitory activity (IC50), radiometric filter plate assay
Type: biochemical
Conditions: 0.6 nM enzyme, 30 μM ATP, 25 μM AKTide-2T substrate, 20 minutes
Method: The reaction is allowed to proceed for 20 minutes before addition of excess orthophosphoric acid to quench activity. The reaction mixture is transferred to a phosphocellulose filter plate where the peptide binds and the unused ATP is washed away. After washing, scintillant is added and the incorporated activity measured by scintillation counting.

T1 sequence (P31751 with tags, fused parts or gaps limits assumed): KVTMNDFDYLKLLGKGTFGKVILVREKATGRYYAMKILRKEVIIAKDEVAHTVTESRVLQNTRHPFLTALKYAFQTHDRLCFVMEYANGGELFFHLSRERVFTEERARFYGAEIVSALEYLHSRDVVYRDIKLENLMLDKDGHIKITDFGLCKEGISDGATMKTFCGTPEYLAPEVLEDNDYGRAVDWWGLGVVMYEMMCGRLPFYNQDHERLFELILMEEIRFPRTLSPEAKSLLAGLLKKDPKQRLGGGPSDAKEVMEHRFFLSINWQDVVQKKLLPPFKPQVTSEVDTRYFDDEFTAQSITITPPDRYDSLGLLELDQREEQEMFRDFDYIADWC

| IC50 [µM] | Structure (SMILES) |
| --- | --- |
| < 1 | CNC[C@@H](c1ccc(Cl)cc1)c1ccc(-c2cn[nH]c2)cc1 [Example 22, {2-(4-Chloro-phenyl)-2-[4-(1H-pyrazol-4-yl)-phenyl]-ethyl}-methyl-amine (R)] |
| < 5 | CNCC(c1ccccc1)c1ccc(-c2c[nH]nc2C)nc1 (centres unmarked) [Example 60] |
